What was measured:
Type in all cases: in vivo
[1] = tested on: Digitaria ciliaris; experiment: Test Example 5: herbicidal effect by foliage application, plastic box (symbol F); conditions: 320 g/ha, 3 weeks after application
Summary of the method: (§1)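 After sowing into sterilized diluvial soil and growing two weeks under glass at 25° C. to 30° C., seedlings receive a uniform foliar spray of diluted emulsion. Damage is judged visually three weeks on.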

[2] = tested on: Veronica persica; experiment: Test Example 5: herbicidal effect by foliage application, plastic box (symbol R); conditions: 320 g/ha, 3 weeks after application
Summary of the method: as §1

[3] = tested on: Echinochloa oryzacola Vasing.; experiment: Test Example 2: herbicidal activity, application during weed generation in submerged conditions (symbol A); conditions: Table 23; application herbicide amount 320 g/ha; grade 0-5 by criteria of Test Example 1
Summary of the method: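 Submerged alluvial soil (4 cm) sown with mixed seed; greenhouse 25–30° C. 1–2 leaf: diluted emulsion onto water surface, preset dose. Visual score, 3 wk.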

[4] = tested on: Veronica persica; experiment: Test Example 4: herbicidal effect by soil treatment (symbol R); conditions: application herbicide amount 320 g/ha
Summary of the method: (§2)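 Seeds were sown in sterilized diluvial soil, covered with about 1.5 cm of soil, and the soil surface was sprayed with a water-diluted emulsion of the compound at a predetermined rate. Plants grew in a greenhouse at 25° C. to 30° C.; effects were scored visually 3 weeks after application.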

[5] = tested on: Digitaria ciliaris; experiment: Test Example 4: herbicidal effect by soil treatment (symbol F); conditions: application herbicide amount 320 g/ha
Summary of the method: as §2

[6] = tested on: soybean; experiment: Test Example 5: effect on crop by foliage application, plastic box (symbol d); conditions: 320 g/ha, 3 weeks after application
Summary of the method: (§3)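 In a plastic box 7 cm deep filled with sterilized diluvial soil, seeds of crops and weeds such as Digitaria ciliaris, Avena fatua and Amaranthus retroflexus are sown in spots and covered with about 1.5 cm of soil before greenhouse growth at 25–30° C.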

[7] = tested on: rice plant; experiment: Test Example 5: effect on crop by foliage application, plastic box (symbol b); conditions: 320 g/ha, 3 weeks after application
Summary of the method: as §3

[8] = tested on: beet; experiment: Test Example 5: effect on crop by foliage application, plastic box (symbol f); conditions: 320 g/ha, 3 weeks after application
Summary of the method: as §3

[9] = tested on: beet; experiment: Test Example 4: effect on crop by soil treatment (symbol f); conditions: application herbicide amount 320 g/ha
Summary of the method: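 The test used sterilized diluvial soil. Seed was set down in spots and overlaid with about 1.5 cm of soil before growth in a greenhouse kept at 25° C. to 30° C.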

[10] = tested on: Abutilon theophrasti; experiment: Test Example 5: herbicidal effect by foliage application, plastic box (symbol M); conditions: 320 g/ha, 3 weeks after application
Summary of the method: as §1

[11] = tested on: Echinochloa crus-galli var. crus-galli; experiment: Test Example 3: herbicidal effect by foliage application, Wagner pot (symbol H); conditions: application herbicide amount 320 g/ha
Summary of the method: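 Steps: fill pot with alluvial soil; add water to 0.1–0.5 cm depth; sow weed and rice seed; grow 14 days at 25–30 °C; spray diluted emulsion over the leaves; rate effect after 3 weeks.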

[12] = tested on: Avena fatua; experiment: Test Example 4: herbicidal effect by soil treatment (symbol I); conditions: application herbicide amount 320 g/ha
Summary of the method: as §2

[13] = tested on: Amaranthus retroflexus; experiment: Test Example 5: herbicidal effect by foliage application, plastic box (symbol N); conditions: 320 g/ha, 3 weeks after application
Summary of the method: as §1

[14] = tested on: Alopecurus myosuroides; experiment: Test Example 4: herbicidal effect by soil treatment (symbol J); conditions: application herbicide amount 320 g/ha
Summary of the method: as §2

[15] = tested on: Abutilon theophrasti; experiment: Test Example 4: herbicidal effect by soil treatment (symbol M); conditions: application herbicide amount 320 g/ha
Summary of the method: as §2

[16] = tested on: Apera spica-venti; experiment: Test Example 5: herbicidal effect by foliage application, plastic box (symbol L); conditions: 320 g/ha, 3 weeks after application
Summary of the method: as §1

Row | Compound | F: Digitaria ciliaris, herbicidal effect grade [1] | R: Veronica persica, herbicidal effect grade [2] | Herbicidal effect grade, A: Echinochloa oryzacola Vasing. [3] | R (Veronica persica) herbicidal effect grade [4] | F (Digitaria ciliaris) herbicidal effect grade [5] | d: soybean, effect on crop grade [6] | b: directly sowed rice plant, effect on crop grade [7] | f: beet, effect on crop grade [8] | f (beet) effect on crop grade [9] | M: Abutilon theophrasti, herbicidal effect grade [10] | herbicidal effect on H (Echinochloa crus-galli var. crus-galli), grade 0-5 [11] | I (Avena fatua) herbicidal effect grade [12] | N: Amaranthus retroflexus, herbicidal effect grade [13] | J (Alopecurus myosuroides) herbicidal effect grade [14] | M (Abutilon theophrasti) herbicidal effect grade [15] | L: Apera spica-venti, herbicidal effect grade [16]
1 | CON=C(C)CC1CC(O)=C(c2c(C)cc(C)cc2C)C1=O (stereo not shown) [1-002, 3-hydroxy-2-mesityl-5-{2-(methoxyimino)propyl}cyclopent-2-enone] | 5 (Herbicidal ratio of 90% or more (almost completely withered)) | 4 (Herbicidal ratio of 70% or higher and lower than 90%) | 5 (Herbicidal ratio of 90% or more (almost completely withered)) | 5 (Herbicidal ratio of 90% or more (almost completely withered)) | 5 (Herbicidal ratio of 90% or more (almost completely withered)) | 4 (Herbicidal ratio of 70% or higher and lower than 90%) | 5 (Herbicidal ratio of 90% or more (almost completely withered)) | 5 (Herbicidal ratio of 90% or more (almost completely withered)) | 3 (Herbicidal ratio of 40% or higher and lower than 70%) | 4 (Herbicidal ratio of 70% or higher and lower than 90%) | 5 (Herbicidal ratio of 90% or more (almost completely withered)) | 5 (Herbicidal ratio of 90% or more (almost completely withered)) | 5 (Herbicidal ratio of 90% or more (almost completely withered)) | 5 (Herbicidal ratio of 90% or more (almost completely withered)) | 5 (Herbicidal ratio of 90% or more (almost completely withered)) | 5 (Herbicidal ratio of 90% or more (almost completely withered))
2 | CCCCCCCCC(=O)OC1=C(c2c(C)cc(C)cc2C)C(=O)C(CC(C)=NOC)C1 (stereo not shown) [1-033] | 5 (Herbicidal ratio of 90% or more (almost completely withered)) | 2 (Herbicidal ratio of 20% or higher and lower than 40%) | 5 (Herbicidal ratio of 90% or more (almost completely withered)) | 1 (Herbicidal ratio of 5% or higher and lower than 20%) | 5 (Herbicidal ratio of 90% or more (almost completely withered)) | 4 (Herbicidal ratio of 70% or higher and lower than 90%) | 5 (Herbicidal ratio of 90% or more (almost completely withered)) | 3 (Herbicidal ratio of 40% or higher and lower than 70%) | 1 (Herbicidal ratio of 5% or higher and lower than 20%) | 4 (Herbicidal ratio of 70% or higher and lower than 90%) | 5 (Herbicidal ratio of 90% or more (almost completely withered)) | 4 (Herbicidal ratio of 70% or higher and lower than 90%) | 4 (Herbicidal ratio of 70% or higher and lower than 90%) | 5 (Herbicidal ratio of 90% or more (almost completely withered)) | 5 (Herbicidal ratio of 90% or more (almost completely withered)) | 5 (Herbicidal ratio of 90% or more (almost completely withered))
3 | CCC(CC1CC(O)=C(c2c(C)cc(C)cc2C)C1=O)=NOC (stereo not shown) [1-038] | 5 (Herbicidal ratio of 90% or more (almost completely withered)) | 1 (Herbicidal ratio of 5% or higher and lower than 20%) | 5 (Herbicidal ratio of 90% or more (almost completely withered)) | 0 (Herbicidal ratio of 5% or lower (almost no effect)) | 5 (Herbicidal ratio of 90% or more (almost completely withered)) | 4 (Herbicidal ratio of 70% or higher and lower than 90%) | 5 (Herbicidal ratio of 90% or more (almost completely withered)) | 1 (Herbicidal ratio of 5% or higher and lower than 20%) | 0 (Herbicidal ratio of 5% or lower (almost no effect)) | 4 (Herbicidal ratio of 70% or higher and lower than 90%) | 5 (Herbicidal ratio of 90% or more (almost completely withered)) | 0 (Herbicidal ratio of 5% or lower (almost no effect)) | 2 (Herbicidal ratio of 20% or higher and lower than 40%) | 5 (Herbicidal ratio of 90% or more (almost completely withered)) | 4 (Herbicidal ratio of 70% or higher and lower than 90%) | 5 (Herbicidal ratio of 90% or more (almost completely withered))
4 | CON=C(CC1CC(O)=C(c2c(C)cc(C)cc2C)C1=O)c1ccccc1 (stereo not shown) [1-047] | 1 (Herbicidal ratio of 5% or higher and lower than 20%) | 0 (Herbicidal ratio of 5% or lower (almost no effect)) | 2 (Herbicidal ratio of 20% or higher and lower than 40%) | 0 (Herbicidal ratio of 5% or lower (almost no effect)) | 3 (Herbicidal ratio of 40% or higher and lower than 70%) | 0 (Herbicidal ratio of 5% or lower (almost no effect)) | 4 (Herbicidal ratio of 70% or higher and lower than 90%) | 0 (Herbicidal ratio of 5% or lower (almost no effect)) | 0 (Herbicidal ratio of 5% or lower (almost no effect)) | 0 (Herbicidal ratio of 5% or lower (almost no effect)) | 1 (Herbicidal ratio of 5% or higher and lower than 20%) | 0 (Herbicidal ratio of 5% or lower (almost no effect)) | 0 (Herbicidal ratio of 5% or lower (almost no effect)) | 0 (Herbicidal ratio of 5% or lower (almost no effect)) | 0 (Herbicidal ratio of 5% or lower (almost no effect)) | 1 (Herbicidal ratio of 5% or higher and lower than 20%)

— US11000033B2, “Ketone or oxime compound, and herbicide” (NISSAN CHEMICAL CORPORATION, priority 2014, dated 2021)
